Measurements: ChEMBL document CHEMBL1201862, “PubChem BioAssay data set” (2004)
Blank lines part the entries; values can stand above or below the molecule they belong to. Active and inactive are the calls of the source.

Key:
[1] = target: Glyceraldehyde-3-phosphate dehydrogenase (Homo sapiens, UniProt P04406)
Bcl-2-related protein A1 [2] = target: T1, Bcl-2-related protein A1 (Mus musculus, UniProt Q07440); assay: Bfl-1 inhibitors blocking BH3 peptide binding, confirmation, biochemical, TR-FRET, mouse Bfl-1 (AID 621);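 also: TR-FRET binding of GST-Bfl-1 to FITC-labelled Bid peptide via terbium antibody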
T1 sequence (Q07440 whole entry): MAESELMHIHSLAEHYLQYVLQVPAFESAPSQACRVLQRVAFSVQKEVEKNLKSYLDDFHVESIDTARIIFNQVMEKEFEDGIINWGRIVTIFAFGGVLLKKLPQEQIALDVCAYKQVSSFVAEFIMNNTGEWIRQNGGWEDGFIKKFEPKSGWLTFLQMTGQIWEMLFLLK

Bcl-2-related protein A1 [3] = target: T1, Bcl-2-related protein A1; assay: Bfl-1 binding inhibitors, SAR follow-up, biochemical, fluorescence polarization (AID 1070)
NADPH oxidase 1 = NADPH oxidase 1 (Homo sapiens, UniProt Q9Y5S8); format: functional, cell-based;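 also: Cell-based assay with luminescence read-out, IC50 derived from inhibitor dose-response curves; intracellular ROS from endogenous NOX1 in intact HT29 colon cancer cells; potency of inhibitors that lower the ROS luminescence signal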
[4] = target: T2, Heat shock factor protein 1 (Mus musculus, UniProt P38532); assay: inhibition of MG132-induced HSE-luciferase signal, confirmation, cell-based, NIH3T3, luminescence, dose retest (AID 2382); format: functional;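 also: NIH3T3 fibroblasts with HSF1-driven luciferase reporter stressed by proteasome inhibitor MG132; luminescence from HSF1-driven luciferase expression after 8 hours of MG132 stress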
T2 sequence (P38532 whole entry): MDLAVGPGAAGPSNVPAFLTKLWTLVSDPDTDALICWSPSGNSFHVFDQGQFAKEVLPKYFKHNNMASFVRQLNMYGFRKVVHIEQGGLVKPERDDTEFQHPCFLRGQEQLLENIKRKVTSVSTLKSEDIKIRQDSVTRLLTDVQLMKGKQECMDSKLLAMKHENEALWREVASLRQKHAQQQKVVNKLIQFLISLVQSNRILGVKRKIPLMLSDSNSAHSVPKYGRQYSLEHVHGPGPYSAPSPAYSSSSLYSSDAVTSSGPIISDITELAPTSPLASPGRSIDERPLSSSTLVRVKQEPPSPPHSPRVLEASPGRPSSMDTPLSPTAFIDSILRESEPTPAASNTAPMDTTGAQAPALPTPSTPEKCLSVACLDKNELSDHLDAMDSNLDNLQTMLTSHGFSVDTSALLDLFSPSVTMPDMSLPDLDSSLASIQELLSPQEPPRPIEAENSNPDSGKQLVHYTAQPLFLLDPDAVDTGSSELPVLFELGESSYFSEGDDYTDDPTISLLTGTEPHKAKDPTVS

[5] = target: T3, Neuropeptide Y receptor type 1 (Homo sapiens, UniProt P25929); format: functional;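 also: HEK293 cells with a CNG channel challenged with NPY then isoproterenol; potency as antagonist that reverses NPY suppression of cAMP signal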
T3 sequence (P25929 whole entry): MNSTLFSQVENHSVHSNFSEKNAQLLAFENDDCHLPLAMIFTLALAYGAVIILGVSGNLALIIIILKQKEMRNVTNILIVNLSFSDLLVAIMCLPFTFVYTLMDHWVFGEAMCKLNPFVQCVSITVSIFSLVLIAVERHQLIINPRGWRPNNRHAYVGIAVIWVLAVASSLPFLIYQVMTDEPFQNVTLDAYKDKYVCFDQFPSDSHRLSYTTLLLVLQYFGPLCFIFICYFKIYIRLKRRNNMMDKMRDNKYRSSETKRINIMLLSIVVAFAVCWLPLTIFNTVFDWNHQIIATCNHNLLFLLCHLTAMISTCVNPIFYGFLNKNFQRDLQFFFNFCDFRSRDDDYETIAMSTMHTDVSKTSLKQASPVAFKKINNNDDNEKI

[6] = inhibitors of Bluetongue virus cytopathic effect, confirmation, arbovirus, BSR cells (AID 1250); format: functional;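 also: protection from viral cytopathic effect measured as cell viability by ATP luminescence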
[7] = NIH-3T3 fibroblast cytotoxicity, dose response, cytotoxicity control, cell-based, fluorescence, Alamar Blue, secondary assay (AID 2327); format: functional;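 also: NIH-3T3 mouse fibroblasts cultured with fluconazole at 8 µg/mL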
[8] = C. albicans growth with fluconazole, confirmation, fluorescence, retest (AID 2467); format: functional, cell-based
[9] = target: T3, Neuropeptide Y receptor type 1; assay: NPY-Y1 receptor antagonist potency, dose response, cell-based (AID 1277); format: functional
[10] = target: T4, Neuropeptide Y receptor type 2 (Homo sapiens, UniProt P49146); assay: NPY-Y2 antagonist potency, selectivity check, dose response, counter-screen for NPY-Y1 antagonist project, cell-based (AID 1278); format: functional
T4 sequence (P49146 whole entry): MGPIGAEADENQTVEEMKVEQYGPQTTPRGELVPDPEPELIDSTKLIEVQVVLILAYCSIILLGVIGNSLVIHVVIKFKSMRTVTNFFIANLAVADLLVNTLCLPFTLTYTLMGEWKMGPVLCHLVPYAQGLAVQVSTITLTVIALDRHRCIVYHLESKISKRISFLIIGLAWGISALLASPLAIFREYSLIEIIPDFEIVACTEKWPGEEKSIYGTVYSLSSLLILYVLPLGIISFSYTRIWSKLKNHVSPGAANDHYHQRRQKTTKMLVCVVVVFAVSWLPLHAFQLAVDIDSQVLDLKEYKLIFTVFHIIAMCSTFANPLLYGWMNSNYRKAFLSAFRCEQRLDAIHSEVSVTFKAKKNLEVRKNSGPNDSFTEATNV

[11] = cytotoxicity in HEK-293T cells, dose response, cytotoxicity control for BCR NF-kB inhibitor project, luminescence, B-cell screen hits (AID 489021); format: functional, cell-based;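 also: HEK-293T cells carrying an NF-kB luciferase reporter; cells exposed to compound for about 14 hours before viability readout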
INS1 = assay: beta cell apoptosis inhibitors, cytokine rescue, dose response, luminescence, retest (AID 449756); format: functional, cell-based; conditions: Rattus norvegicus;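 also: cell death triggered by IL-1 beta plus TNF-alpha plus IFN-gamma mixture; protective hits raise ATP signal compared with cytokine alone wells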
HT-1080 = assay: cytotoxicity in HT1080 fibrosarcoma cells, cell-based, fluorescence readout (AID 620); format: functional; conditions: Homo sapiens
[12] = target: Luciferin 4-monooxygenase (Photinus pyralis, UniProt P08659); assay: Counter Screen for Luciferase-based Assay Positives. [Related pubchem assays: 620, 618, 411 ]
[13] = target: Neurotensin receptor type 1 (Homo sapiens, UniProt P30989); format: functional;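 also: Image-based confirmatory dose-response assay measuring agonist activity at NTR1; NTR1-expressing U2OS osteosarcoma cells imaged for beta-arrestin GFP spot formation; agonist potency where compounds increase beta-arrestin recruitment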
[14] = target: T5, Microphthalmia-associated transcription factor (Homo sapiens, UniProt O75030); assay: TRPM1 promoter luciferase signal decrease, dose response, MITF inhibitor project, cell-based, SK-MEL-5, cherry-picked, set 3 (AID 493073); format: functional
T5 sequence (O75030 whole entry): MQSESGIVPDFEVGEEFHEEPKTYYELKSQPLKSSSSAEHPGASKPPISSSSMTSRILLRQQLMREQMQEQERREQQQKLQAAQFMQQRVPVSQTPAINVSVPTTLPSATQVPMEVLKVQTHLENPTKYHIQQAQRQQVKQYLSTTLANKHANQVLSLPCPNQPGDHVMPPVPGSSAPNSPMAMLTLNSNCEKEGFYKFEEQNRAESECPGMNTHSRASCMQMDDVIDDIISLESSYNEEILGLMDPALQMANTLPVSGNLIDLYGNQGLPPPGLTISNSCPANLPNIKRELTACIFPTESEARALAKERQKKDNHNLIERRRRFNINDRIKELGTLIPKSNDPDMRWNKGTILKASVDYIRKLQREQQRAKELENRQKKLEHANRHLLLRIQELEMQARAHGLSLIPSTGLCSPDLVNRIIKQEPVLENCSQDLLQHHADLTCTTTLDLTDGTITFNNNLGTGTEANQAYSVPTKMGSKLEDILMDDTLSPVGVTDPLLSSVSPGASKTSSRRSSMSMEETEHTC

X-box-binding protein 1 = X-box-binding protein 1 (Homo sapiens, UniProt P17861); format: functional, Cricetulus griseus;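 also: confirmatory dose-response counter-screen serving a CHOP assay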
Estrogen receptor = target: T6, Estrogen receptor (Homo sapiens, UniProt P03372); assay: potentiators of ERα–SRC-1 coactivator binding, dose response, biochemical, TR-FRET, ERα LBD (AID 737)
T6 sequence (P03372 whole entry): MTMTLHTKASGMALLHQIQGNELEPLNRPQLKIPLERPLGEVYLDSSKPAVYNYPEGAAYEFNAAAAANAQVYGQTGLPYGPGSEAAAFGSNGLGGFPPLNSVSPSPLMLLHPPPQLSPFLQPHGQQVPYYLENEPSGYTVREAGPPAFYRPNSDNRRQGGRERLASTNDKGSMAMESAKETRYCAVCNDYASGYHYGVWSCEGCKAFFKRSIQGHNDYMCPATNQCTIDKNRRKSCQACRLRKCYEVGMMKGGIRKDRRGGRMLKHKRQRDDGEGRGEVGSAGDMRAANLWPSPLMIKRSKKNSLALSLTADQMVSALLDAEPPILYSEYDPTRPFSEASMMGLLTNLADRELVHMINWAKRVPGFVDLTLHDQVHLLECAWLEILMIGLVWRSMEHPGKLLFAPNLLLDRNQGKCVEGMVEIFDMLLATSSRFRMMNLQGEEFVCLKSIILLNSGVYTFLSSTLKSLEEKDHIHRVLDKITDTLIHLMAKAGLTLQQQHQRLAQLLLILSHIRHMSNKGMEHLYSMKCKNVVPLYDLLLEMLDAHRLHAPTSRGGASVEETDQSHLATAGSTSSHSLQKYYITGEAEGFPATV

[15] = Jurkat T cell cytotoxicity, dose response, cytotoxicity control for P. falciparum gametocyte viability project, luminescence (AID 1117277); format: functional, cell-based;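 also: potency reflects loss of cellular ATP meaning fewer viable cells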
[16] = P. falciparum late gametocyte killing, dose response, luminescence (AID 1117278); format: functional, cell-based;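 also: gametocytes exposed to compound for 24 hours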
Estrogen receptor beta = Estrogen receptor beta (Homo sapiens, UniProt Q92731);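 also: recombinant ER-beta bound to coactivator SRC1 peptide in presence of estradiol agonist; inhibitors block coactivator peptide binding and lower the FRET signal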
[17] = target: Acyl-homoserine lactone acylase PvdQ (Pseudomonas aeruginosa (strain LESB58), UniProt Q9I194); assay: P. aeruginosa PvdQ acylase inhibitors, dose response, biochemical, fluorescence, plate reader and imaging, cherry-picks (AID 493231)
[18] = Luminescence-based counterscreen assay for KLF5 inhibitors: dose response cell-based high throughput screening assay to identify cytotoxic compounds using the IEC-6 intestinal epithelial cell line. [Related pubchem assays: 1700 (Primary screen.), 1834 (Confirmation screen.), 1858 (Summary AID.), 1905 (Counterscreen.)]; format: functional
Streptococcus = assay: Group A Streptococcus viability loss, dose response, counter-screen for streptokinase expression inhibitor project, luminescence, BacTiterGlo (AID 1915); format: functional, organism-based;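 also: potency for reduction of bacterial viability or growth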
[19] = system: Streptococcus sp. 'group A'; assay: growth inhibition of control SK(-) GAS strain, dose response, counter-screen for streptokinase expression inhibitor project, luminescence, kanamycin, BacTiterGlo, confirmation (AID 1900); format: functional, organism-based

Structure (SMILES): O=[N+]([O-])c1cc(O/N=C/c2ccccc2)cc([N+](=O)[O-])c1
- IC50 (NADPH oxidase 1): > 17 µM (not active)

Structure (SMILES): Cc1cccc(CSCCNC(=O)COc2ccc(Cl)cc2)c1
- EC50 [4]: > 195 µM (not active)
- IC50 [5]: 13.3 µM (not active)

Structure (SMILES): Cc1ccc(-[n+]2c(-c3ccccc3)cn3c2CCc2ccccc2-3)c(C)c1
- EC50 [7]: 96.9 µM (active)
- EC50 [8]: 1.24 µM (active)
- IC50 [9]: 3.65 µM (active)
- IC50 [10]: 5.9 µM (active)
- IC50 [11]: > 80 µM (inactive)
- AC50 (INS1): 1.91 µM (active)

Structure (SMILES): COc1ccc(C(=O)Nc2ccc3c(c2)OCCO3)cc1
- EC50 (HT-1080): > 50 µM (not active)
- EC50 [12]: < 200 nM (active)

Structure (SMILES): CCCOc1ccc(N2C(=O)CC(SC(=NC)Nc3ccc(F)cc3)C2=O)cc1 (stereo unspecified)
- Absolute IC50 (XBP1) (X-box-binding protein 1): 10 µM

Structure (SMILES): FC(F)(F)Oc1ccc(/C=N/Nc2c(Cl)cncc2Cl)cc1
- IC50 (NADPH oxidase 1): > 17 µM (not active)

Structure (SMILES): COC(=O)c1c(-c2ccncc2)csc1NC(=O)c1ccoc1C
- EC50 (Estrogen receptor): 23.1 µM (active)
- IC50 [15]: > 83.3 µM (inactive)
- IC50 [16]: > 109 µM (inactive)

Structure (SMILES): Fc1ccc(CNCc2cccc(Br)c2)cc1
- AC50 [17]: 30.2 µM (active)

Structure (SMILES): COc1cccc(/C=N/NC(=O)c2cc3c(OC)ccc(OC)c3[nH]2)c1O
- IC50 [18]: 16.3 µM (not active)
- EC50 (Streptococcus): 3.31 µM (active)
- AC50 (INS1): 4.13 µM (active)
- EC50 [19]: 1.23 µM (active)

Further lines, results first:

- IC50 [1]: > 100 µM (not active)
- IC50 (Bcl-2-related protein A1 [2]): 4.83 µM (active)
- IC50 (Bcl-2-related protein A1 [3]): 1.26 µM (active)
Structure (SMILES): COc1cccc(N2CCN(C3=C(Cl)C(=O)N(c4ccc(Cl)c(Cl)c4)C3=O)CC2)c1

- IC50 [1]: > 100 µM (not active)
- IC50 (Bcl-2-related protein A1 [2]): 8.29 µM (active)
- IC50 (Bcl-2-related protein A1 [3]): 15.9 µM (active)
Structure (SMILES): C[C@@H]1CN(C2=C(Cl)C(=O)N(c3ccc(Cl)c(Cl)c3)C2=O)[C@@H](C)CN1

- IC50 [6]: 24.7 µM (active)
Structure (SMILES): C=CCn1c(SCc2c(C)noc2C)nnc1C1COc2ccccc2O1 (stereo unspecified)

- EC50 [13]: 17.3 µM (active)
- AC50 [14]: 5.36 µM (active)
Structure (SMILES): CCOC(=O)c1ccc(NC(=O)c2ccc(C)c(S(=O)(=O)N3CCOCC3)c2)cc1

- IC50 [6]: 23.3 µM (active)
Structure (SMILES): COc1ccc(S(=O)(=O)N2CCN(c3ccccc3OC)CC2)cc1OC

- IC50 [9]: 12.3 µM (not active)
- IC50 [10]: > 35 µM (not active)
Structure (SMILES): CCC(C)(C(=O)NC1CCCCC1)N(Cc1ccco1)C(=O)Cc1cccs1 (stereo unspecified)

- IC50 (Estrogen receptor beta): > 50 µM (not active)
Structure (SMILES): CCCNc1nc(N2CCOCC2)nc(N2CCOCC2)n1

- EC50 (Estrogen receptor): 12.9 µM (active)
Structure (SMILES): COc1ccc(-c2ccc(-c3noc(-c4cccs4)n3)c(OC)n2)cc1

- IC50 (Estrogen receptor beta): > 50 µM (not active)
Structure (SMILES): O=C1Nc2ccccc2C12OCCS2 (stereo unspecified)
